The text below walks through data of ChEMBL document CHEMBL3751730, “Synthesis and in vitro antitumor evaluation of dihydroartemisinin-cinnamic acid ester derivatives” (Eur J Med Chem, 2016).

Activity calls are given as the source filed them. No cut-off for these calls is given here.

The test system of data set [1] is A549. The experiment in a line: Antiproliferative activity against human A549 cells at 0.20 uM after 72 hrs by MTT assay. Format: functional, cell-based. In general terms: Tetrazolium dyes change colour on reduction, which living cells bring about.
Data set [2] relates to A549. As to the kind of experiment: Antiproliferative activity against human A549 cells at 0.20 uM after 72 hrs by MTT assay in presence of 0.40 uM 3,4-dimethoxycinnamic acid. Format: functional, cell-based.
A short description of data set [3]: Antiproliferative activity against human PC3 cells after 72 hrs by MTT assay. Format: functional, cell-based. Conditions: PC-3, 72 h.
Data set [4] is described as follows: Antiproliferative activity against human SGC7901 cells after 72 hrs by MTT assay. The format is functional, cell-based. The settings on record: SGC-7901, 72 h.
Data set [5] deals with A549. As to the kind of experiment: Antiproliferative activity against human A549 cells after 72 hrs by MTT assay. Format: functional, cell-based. Conditions: A549, 72 h.
Data set [6] can be described thus: Antiproliferative activity against human MDA-MB-435S cells after 72 hrs by MTT assay. The format is functional, cell-based.
Data set [7] concerns A549. The experiment in a line: Antiproliferative activity against human A549 cells at 0.40 uM after 72 hrs by MTT assay. Format: functional, cell-based.
In data set [8] the test system is A549. The experiment in a line: Antiproliferative activity against human A549 cells at 0.40 uM after 72 hrs by MTT assay in presence of 0.20 uM 9alpha-DHA. Format: functional, cell-based.
Data set [9] can be described thus: Drug degradation at 2 to 4 mg at 210 to 220 degC by thermogravimetric analysis in the presence of nitrogen gas. The format is physicochemical. Conditions: for degraded: in vivo, read-out: Drug degradation.
A short description of data set [10]: Chemical stability of the compound at 2 to 4 mg at 25 to 300 degC by differential scanning […] analysis in the presence of nitrogen gas. Format: physicochemical.
The nature of data set [11]: Cytotoxicity against human L02 cells after 72 hrs by MTT assay. Format: cell-based. The settings on record: L02, 72 h.
Data set [12] is described as follows: Selectivity index, ratio of IC50 for human L02 cells to IC50 for human A549 cells. The format is functional.

In general, IC50 refers to the point on the concentration scale where inhibition reaches its midpoint. With `C[C@@H]1[C@H](O)C[C@H]2[C@@H](C)[C@@H](O)O[C@@H]3O[C@@]4(C)CC[C@@H]1[C@]32OO4`, the outcome in the data set on A549 [1] and with A549 [2] was inactive. Further, the half-inhibitory concentration (IC50) in data set [3] was more than 100 µM; in data set [4], more than 100 µM; with A549 [5], more than 100 µM; in data set [6] it was 57.8 µM.

For `COc1ccc(/C=C/C(=O)O)cc1OC`, the outcome in the data set on A549 [7] and in the data set on A549 [8] was inactive.

Turning to `COc1cc(/C=C/C(=O)O[C@@H]2O[C@@H]3O[C@@]4(C)CC[C@H]5[C@H](C)[C@H](OC(=O)/C=C/c6cc(OC)c(OC)c(OC)c6)C[C@@H]([C@H]2C)[C@@]35OO4)cc(OC)c1OC`, in data set [9], the degraded is 1%. Besides, in data set [10], the Stability result is “Stable”. In addition, the IC50 was determined as 17.2 µM in data set [3]; 11.8 µM in data set [4]; 0.5 µM with A549 [5]; 5.33 µM in [6]; 58.6 µM in data set [11]. For the same compound, the “Ratio IC50” value in [12] was 117.3.

Turning to `COc1ccc(/C=C/C(=O)O[C@@H]2O[C@@H]3O[C@@]4(C)CC[C@H]5[C@H](C)[C@H](OC(=O)/C=C/c6ccc(OC)c(OC)c6OC)C[C@@H]([C@H]2C)[C@@]35OO4)c(OC)c1OC`, the IC50 in data set [3] was 2.95 µM; in data set [4], 19.6 µM; in the data set on A549 [5] it was 1.66 µM; in data set [6] it was 16.6 µM; in data set [11], 57.9 µM. In addition, the “Ratio IC50” value in [12] was determined as 34.88.

In the case of `C[C@H]1[C@@H](O)O[C@@H]2O[C@@]3(C)CC[C@H]4[C@H](C)CC[C@@H]1[C@@]24OO3` [ARTENIMOL], in data set [9], the Stability result is “Unstable”. Moreover, the 50% inhibitory concentration (IC50) is more than 100 µM in data set [3]; more than 100 µM in [4]; 80.4 µM in the data set on A549 [5]; 21.9 µM in data set [6]; 146 µM in data set [11]. In data set [12], the “Ratio IC50” value is reported as 1.81.

For the compound `C[C@@H]1[C@H](OC(=O)/C=C/c2ccccc2)C[C@H]2[C@@H](C)[C@H](OC(=O)/C=C/c3ccccc3)O[C@@H]3O[C@@]4(C)CC[C@@H]1[C@]32OO4`, the degraded in data set [9] worked out at 1%. Also, the Stability result in data set [10] is “Stable”. Besides, the half-inhibitory concentration (IC50) in [3] was 36 µM; in data set [4], 12.8 µM; in the data set with A549 [5], 4.42 µM; in [6], 18 µM.

Turning to `C[C@@H]1[C@H](OC(=O)/C=C/c2ccc(Cl)cc2)C[C@H]2[C@@H](C)[C@H](OC(=O)/C=C/c3ccc(Cl)cc3)O[C@@H]3O[C@@]4(C)CC[C@@H]1[C@]32OO4`, the degraded in data set [9] turned out to be 1%. In data set [10], the Stability entry is “Stable”. Also, the concentration for half-maximal inhibition (IC50) in [3] came to 6.76 µM; in data set [4], 21.3 µM; with A549 [5] it was 1.5 µM; in data set [6], 58.3 µM.

Turning to `COc1cccc(/C=C/C(=O)O[C@@H]2O[C@@H]3O[C@@]4(C)CC[C@H]5[C@H](C)[C@H](OC(=O)/C=C/c6cccc(OC)c6)C[C@@H]([C@H]2C)[C@@]35OO4)c1`, the degraded in data set [9] is 1%. Further, the Stability entry in data set [10] is recorded as “Stable”. The IC50 in data set [3] was 43.9 µM; in data set [4] it was 16.2 µM; in the data set with A549 [5] it was 0.8 µM; in [6], 18.2 µM.
